One series relates to A549 NucLight Red cells. Nature of the series: Lytic effect on A549 NucLight Red cells (IncuCyte S3). To be noted: for lytic effect on A549 NucLight Red cells: 100 μM, images 20 min after exposure; for lytic effect on A549 cells: high concentrations, nearly immediate cell bursting after exposure, fluorescence microscopy. It is filed as cell-based, human. An excerpt:
Amphipathic alpha-helical peptides have been reported to cause nonspecific membrane disruption events due to their constrained helical structure and amino acid composition.[2],[5],[37],[38] Lytic peptides in fact are highly efficient at binding and disrupting the negatively charged membrane of cells, as they are usually amphipathic and positively charged.[2],[5],[37],[38] Key determinants for cell permeability and the lytic effect are the combination of relatively high hydrophobic content and the number of positively charged residues in addition to the position of the staple within the alpha-helical peptide. Therefore, our design strategy included peptides with varying net charges and explored different positions of the staple within the peptide (Tables 1 and 2; Figure 2). To assess cellular permeability and to detect eventual nonspecific cell lytic effects, we tested selected stapled covalent peptides against the human nonsmall cell lung cancer (NSCLC) cell line A549 (Figure 7). To enhance live cell analysis, we used a cell line that was fluorescently labeled (A549 NucLight Red cells, Essen Bioscience), and cells were monitored for cell lysis via fluorescence microscopy using the IncuCyte S3 live-cell analysis system (Figure 7). […] Considering those data, together with the affinity for hMcl-1(172–323), alpha-helical content (Table 2), and covalent complex formation as detected by SDS gel electrophoresis, mass spectrometry, NMR, and X-ray crystallography, we selected agent 155H1, which was further tested in preliminary cell permeability and cellular efficacy studies.
Figure 7 Lytic effect of stapled peptides on the NSCLC A549 NucLight Red cells detected via the IncuCyte S3 live-cell analysis system. The schematic illustrations depict the lytic (panel A) and nonlytic (panel B) effects of stapled agents on the cells. Representative images of cells collected 20 min after exposure to 100 μM lytic stapled compound 1 (panel A) or nonlytic stapled peptide 155H1 (panel B), along with untreated (DMSO only) cells as a control. Note: Images were taken 20 min after plates were placed inside the IncuCyte S3 to minimize condensation that can affect image quality. The scale bar denotes 100 μm.
Nonsmall cell lung cancer (NSCLC) A549 NucLight Red cells were purchased from Essen Bioscience and cultured in Ham’s F-12 nutrient mixture with GlutaMAX-1 (Gibco) supplemented with 10% FBS and 0.5 μg/mL puromycin. Cells were maintained in a humidified incubator at 37 °C in 5% CO2. These cells have nuclei-fluorescently labeled red. Anti-hMcl-1 and anti-β-tubulin antibodies were purchased from Cell Signaling Technology (#5453) and Santa Cruz Biotechnology (sc-58884), respectively. HRP-conjugated goat antimouse and antirabbit secondary antibodies were purchased from ThermoFisher Scientific.

For a further series, the target named is T1, hMcl-1(172–323) (Homo sapiens, UniProt Q07820).
T1 construct: made in house; host or cells: E. coli BL21 (DE3) gold pLysS
T1 sequence (Q07820 172-323): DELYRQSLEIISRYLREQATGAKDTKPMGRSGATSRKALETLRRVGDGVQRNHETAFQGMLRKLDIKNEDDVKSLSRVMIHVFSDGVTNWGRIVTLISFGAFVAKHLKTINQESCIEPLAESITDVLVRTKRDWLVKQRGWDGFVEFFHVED
Nature of the series: DELFIA displacement of biotinylated-BH3 peptide from hMcl-1(172–323). It is filed as binding.

The nature of series [1]: Aqueous solubility (observation). Format: physicochemical. As to conditions: observed during CD measurements. From the text: (§1) Furthermore, to verify that the peptides preferentially assumed a stabilized alpha-helical conformation in the stapled version compared to the linear peptide, we performed CD measurements. Typical curves for the linear peptide (138E12, blue) and a stapled peptide (155H1, red) are reported in Figure 3, while CD data for all other peptides are reported as the Supporting Information (Supporting Figures S3–S14). Using these measurements and the software BeStSel (https://bestsel.elte.hu),[34] we could calculate the percentage of alpha-helical content for each peptide (Table 2). Most stapled peptides, perhaps except compound 4 and compound 7, assumed nearly complete alpha-helical conformation in aqueous buffer (Table 2 and Supporting Figures S3–S14).

Series [2] is described as follows: Circular dichroism, percentage of alpha-helix (BeStSel). It is filed as physicochemical. As to conditions: 25 °C.
Description: as §1
Circular dichroism spectra were acquired on a Jasco 815 spectropolarimeter. Samples were prepared in MQ Water or in 15 mM phosphate buffer, pH 7.5. The experiments were conducted at 25 °C, using a 1 mm-path length quartz cell to record data from 190 to 260 nm in 1 nm increments. The response time was 2 s. The data were then converted to Δε(M^–1·cm^–1), and the percentage of alpha-helix was calculated using BeStSel (https://bestsel.elte.hu) software.[34]

The mark [3] stands for this setting: DELFIA displacement assay, n = 2, 16 nM 6His-hMcl-1(172–323), protein and peptide preincubated 2 h, room temperature, 1% DMSO, read-out: IC50 (nM) hMcl-1(172–323).

Like-named read-outs stand apart in the source and are kept apart here. Marks after values point to notes of the source that are not given here. Positions of bridges follow the written chain, without caps; N, C: chain ends. Non-standard residues stand in square brackets, D forms with d. Residues, ends and D or L forms follow the SMILES beside them. *: point of attachment. Benzoyl(2-OMe,5-SO2F) = COc1ccc(S(=O)(=O)F)cc1C(=O)*; Ala(1H-tetrazol-5-yl) = N[C@@H](Cc1nnn[nH]1)C(=O)O; S5 = C=CCCC[C@](C)(N)C(=O)O; Dap = NC[C@H](N)C(=O)O

Description for hMcl-1(172–323): At the end of a 2 h incubation, plates were washed 3 times. Subsequently, a solution of 6His-tagged-hMcl-1(172–323) or 6His-tagged-hBfl-1(1–149) protein and the test peptides were preincubated for 2 h and added to the washed streptavidin-coated plates along with a Eu–N1-labeled anti-6xHis antibody (PerkinElmer, 1:2000) solution and further incubated for 2 h on a microplate shaker. Plates were then washed 3 times, and each well was incubated with 200 μL of the enhancement solution (PerkinElmer) for 10 min. Fluorescent readings (VICTOR X5 microplate reader) were then measured by using the excitation and emission wavelengths of 340 and 615 nm, respectively. Fluorescent counts were normalized to those of DMSO wells and reported as % inhibition, and Prism 10 (GraphPad) was used to calculate the IC50 values. Protein, peptide, and antibody solutions were prepared in a DELFIA assay buffer (PerkinElmer), and all of the incubations were performed at room temperature. Each well received a final DMSO concentration of 1%. The final concentrations of 6His-tagged-hMcl-1(172–323) and 6His-tagged-hBfl-1(1–149) used were 16 and 15 nM, respectively.

On to `CC[C@H](C)[C@H](NC(=O)[C@H](CNC(=O)c1cc(S(=O)(=O)F)ccc1OC)NC(C)=O)C(=O)N[C@@H](C)C(=O)N[C@@H](CCC(=O)O)C(=O)N[C@@H](CCC(N)=O)C(=O)N[C@@H](CC(C)C)C(=O)N[C@@H](CCCNC(=N)N)C(=O)N[C@@]1(C)CCC/C=C\CCC[C@@](C)(C(=O)N[C@@H](Cc2ccccc2)C(N)=O)NC(=O)[C@H](CC(=O)O)NC(=O)CNC(=O)[C@H]([C@@H](C)CC)NC1=O` [11 (155H1)] (Ac-[Dap](Benzoyl(2-OMe,5-SO2F))IAEQLR[S5]IGD[S5]F-NH2; staple (Z) 8-12), for which, in the series with A549 NucLight Red cells, the “lytic effect on A549 NucLight Red cells” value is reported as “nonlytic”.
On to `CC[C@H](C)[C@H](NC(=O)[C@H](CCCNC(=N)N)NC(=O)[C@H](CCCNC(=N)N)NC(=O)[C@H](CC(C)C)NC(=O)[C@H](CCC(N)=O)NC(=O)[C@]1(C)CCC/C=C/CCC[C@](C)(NC(C)=O)C(=O)N[C@@H](CNC(=O)c2cc(S(=O)(=O)F)ccc2OC)C(=O)N[C@@H]([C@@H](C)CC)C(=O)N[C@@H](C)C(=O)N1)C(=O)NCC(=O)N[C@@H](CC(=O)O)C(=O)N[C@@H](CCCNC(=N)N)C(=O)N[C@@H](Cc1ccccc1)C(N)=O` [compound 1] (Ac-[S5][Dap](Benzoyl(2-OMe,5-SO2F))IA[S5]QLRRIGDRF-NH2; staple (E) 1-5), for which, in the series on A549 NucLight Red cells, the “lytic effect on A549 NucLight Red cells” value is given as “lytic” and the “lytic effect on A549 cells” value is reported as “lytic effect was observed”.
For the molecule `CC[C@H](C)[C@H](NC(=O)[C@H](CCCNC(=N)N)NC(=O)[C@H](CCCNC(=N)N)NC(=O)[C@H](CC(C)C)NC(=O)[C@H](CCC(N)=O)NC(=O)[C@]1(C)CCC/C=C/CCC[C@](C)(NC(C)=O)C(=O)N[C@@H](CNC(=O)c2cc(S(=O)(=O)F)ccc2OC)C(=O)N[C@@H]([C@@H](C)CC)C(=O)N[C@@H](C)C(=O)N1)C(=O)NCC(=O)N[C@@H](Cc1nn[nH]n1)C(=O)N[C@@H](CCCNC(=N)N)C(=O)N[C@@H](Cc1ccccc1)C(N)=O` [compound 2] (Ac-[S5][Dap](Benzoyl(2-OMe,5-SO2F))IA[S5]QLRRIG[Ala(1H-tetrazol-5-yl)]RF-NH2; staple (E) 1-5), the IC50 at hMcl-1(172–323) was 633 ± 30 nM. Also, the “lytic effect on A549 cells” value with A549 NucLight Red cells is listed as “lytic effect was observed”.
In the case of `CC[C@H](C)[C@H](NC(=O)[C@H](C)NC(=O)[C@H](CCCNC(=N)N)NC(=O)[C@H](CC(C)C)NC(=O)[C@H](CCC(N)=O)NC(=O)[C@]1(C)CCC/C=C/CCC[C@](C)(NC(C)=O)C(=O)N[C@@H](CNC(=O)c2cc(S(=O)(=O)F)ccc2OC)C(=O)N[C@@H]([C@@H](C)CC)C(=O)N[C@@H](C)C(=O)N1)C(=O)NCC(=O)N[C@@H](CC(=O)O)C(=O)N[C@@H](C)C(=O)N[C@@H](Cc1ccccc1)C(N)=O` [compound 4] (Ac-[S5][Dap](Benzoyl(2-OMe,5-SO2F))IA[S5]QLRAIGDAF-NH2; staple (E) 1-5), the aqueous solubility result in series [1] is “limited aqueous solubility”.
Regarding `CC[C@H](C)[C@H](NC(=O)[C@H](CNC(=O)c1cc(S(=O)(=O)F)ccc1OC)NC(C)=O)C(=O)N[C@@H](C)C(=O)N[C@@]1(C)CCC/C=C\CCC[C@@](C)(C(=O)N[C@H](C(=O)NCC(=O)N[C@@H](CC(=O)O)C(=O)N[C@@H](C)C(=O)N[C@@H](Cc2ccccc2)C(N)=O)[C@@H](C)CC)NC(=O)[C@H](CCCNC(=N)N)NC(=O)[C@H](CC(C)C)NC(=O)[C@H](CCC(N)=O)NC1=O` [compound 7] (Ac-[Dap](Benzoyl(2-OMe,5-SO2F))IA[S5]QLR[S5]IGDAF-NH2; staple (Z) 4-8), the aqueous solubility result in series [1] is listed as “limited aqueous solubility”.
As for “Ac-Dap(2MeO,5FSB)IAEQLRRIGDRF-CONH2 (Ac-[Dap](2‑methoxy‑5‑fluorosulfonylbenzoyl)IAEQLRRIGDRF-NH2) [138E12, previously reported linear Lys 234-covalent BH3 peptide with aryl-sulfonyl fluoride, reference compound]”, in the series with hMcl-1(172–323) (setting [3]), the IC50 came to 18 ± 4 nM.
Regarding “Ac-Dap(2MeO,5FSB)IAEQLRRIGDRF-CONH2 [138E12, previously reported linear Lys 234-covalent BH3 peptide with aryl-sulfonyl fluoride, reference compound]”, the “% alpha-helix” value in series [2] (CD spectra measured both in water and in 15 mM phosphate buffer pH 7.5, BeStSel) is recorded as 48.3 ^b %.
On to “Ac-Dap(2MeO,5FSB)IXEQLXRIGDRF-CONH2 (sidechain bridge or staple) ({Ac-Dap(2MeO,5FSB)}-I[S5]EQL[S5]RIGDRF-NH2; staple 2-6) [compound 10, stapled covalent BH3 peptide, staple at positions 4 and 8]”, for which the IC50 in the series with hMcl-1(172–323) (setting [3]) was found to be 174 ± 1 nM. The “% alpha-helix” value in series [2] (CD, 190–260 nm, MQ water or 15 mM phosphate buffer pH 7.5, calculated using BeStSel) is listed as 100%.

The values are drawn from article PMC11129181, “Histidine-Covalent Stapled Alpha-Helical Peptides Targeting hMcl-1” (Journal of Medicinal Chemistry, 2024).
